# Data reported in PubChem BioAssay AID686929 (Broad Institute, 2013).
# Several values for one entry are separate records, joined by “and”; a condition that tells them apart may be missing. Identical values can stand only once. Activity calls are given as the source filed them. How the calls were made is not given here.
# Test system: not listed separately
# Experiment: Inducers of light in absence of autoinducers, V. cholerae BH1578, confirmatory (AID 686929)
# Settings: V. cholerae BH1578 lux luminescence induction, 6 h; at 35 µM (top of the series)
row,SMILES,activation (light induction)
1,O=C(CC1CCCCC1)Nc1nnc(-c2ccc3c(c2)CCCC3)o1,0.065% (inactive)

# Same assay, conditions: V. cholerae BH1578 lux luminescence induction, 6 h; at 80 µM (top of the series)
row,SMILES,activation (light induction)
1,CCOC(=O)c1ccccc1Nc1cccc(Cl)c1,0.004% (inactive)
2,O=c1ncn(-c2cccc(Cl)c2)c2cccc(Cl)c12,0% (inactive)
3,O=C1C(=O)N(Cc2cccc(Cl)c2)c2ccccc21,0.001% (inactive)
4,O=C(Nc1nnc(-c2ccc3c(c2)OCCO3)o1)C1CCCC1,0.417% (inactive)
5,O=c1ncn(-c2ccccc2)c2ccccc12,4.58% (inactive)
6,O=C(CSc1nc2c(c(=O)[nH]1)CCCC2)NC1CCCCC1,0.02% (inactive)
7,Cn1cnc(=O)c2ccccc21,0.023% (inactive)
8,O=c1ncn(-c2cccc(F)c2)c2ccccc12,12.4% (inactive)
9,COC(=O)c1ccccc1Nc1cccc(Cl)c1,0.155% (inactive)
10,O=c1[nH]cnc2ccccc12,0.008% (inactive)
11,Cc1ccc(-n2cnc(=O)c3ccccc32)cc1Cl,0.197% (inactive)
12,O=c1ncn(-c2cccc(Cl)c2)c2cc(Cl)ccc12,0.003% (inactive)
13,O=C(Nc1nnc(-c2ccc3c(c2)CCCC3)o1)C1CCC1,-0.004% (inactive)
14,NC(=O)c1ccccc1Nc1cccc(Cl)c1,0.018% (inactive)
15,O=C(Nc1nnc(-c2ccc(Cl)cc2)o1)C1CCCCC1,0.013% (inactive)
16,Cc1ccc2c(=O)ncn(-c3cccc(Cl)c3)c2c1,0.023% (inactive)
17,COc1cccc(-n2cnc(=O)c3ccccc32)c1,0.108% (inactive)
18,NC(=O)c1ccccc1Nc1ccccc1,0.096% (inactive)
19,Cc1ccc2cc3c(NC(=O)c4ccoc4)nn(C)c3nc2c1,0.289% (inactive)
20,O=c1nc(Cc2ccccc2)n(-c2cccc(Cl)c2)c2ccccc12,0.573% (inactive)

row,SMILES,activation (light induction)
1,O=C(CSc1nc2ccccc2c(=O)[nH]1)NC1CCCCC1,0.005% (inactive)
2,O=C(CC1CCCCC1)Nc1nnc(-c2cccnc2)o1,-0.004% (inactive)
3,CCc1nc(=O)c2ccccc2n1-c1cccc(Cl)c1,0.156% (inactive)
4,O=c1ncn(-c2cccc(Cl)c2)c2ccc(Cl)cc12,3.29% (inactive)
5,O=c1ncn(Cc2ccc(Cl)cc2)c2ccccc12,0.035% (inactive)
6,Cc1ccc2c(c1)c(=O)ncn2-c1cccc(Cl)c1,2.5% (inactive)
7,O=C(O)c1ccccc1Nc1cccc(Cl)c1,0.019% (inactive)
8,O=c1ncn(-c2ccc(F)c(Cl)c2)c2ccccc12,1.31% (inactive)
9,CCC(C)(C)C(=O)Nc1nnc(-c2ccc3c(c2)OCCO3)o1,-0.001% (inactive)
10,O=c1ncn(-c2ccc(Cl)cc2)c2ccccc12,0.027% (inactive)
11,O=c1nc(-c2ccccc2)n(-c2cccc(Cl)c2)c2ccccc12,-0.004% (inactive)
12,COc1ccc2c(=O)ncn(-c3cccc(Cl)c3)c2c1,0.008% (inactive)
13,Cc1nc(=O)c2ccccc2n1-c1cccc(Cl)c1,9.66% (inactive)
14,Cc1cccc(-n2cnc(=O)c3ccccc32)c1,6.74% (inactive)
15,O=c1ncn(-c2ccccc2Cl)c2ccccc12,0.05% (inactive)
16,O=C1C(=O)N(Cc2ccccc2Cl)c2ccccc21,0.156% (inactive)
17,O=c1ncn(-c2ccc(Cl)c(Cl)c2)c2ccccc12,0.027% (inactive)
18,COc1ccc(-n2cnc(=O)c3ccccc32)cc1Cl,0.017% (inactive)
19,O=C(Nc1nnc(-c2cccc(Cl)c2)o1)C1CCCCC1,0.048% (inactive)

# Same assay, conditions: V. cholerae BH1578 lux luminescence induction, 6 h; at 100 µM (top of the series)
row,SMILES,activation (light induction)
1,Cn1ccc(NC(=O)c2ccco2)n1,0.065% (inactive)
2,c1ccc(CNc2nnc(-c3ccc4c(c3)OCCO4)o2)cc1,0.008% (inactive)
3,Cc1ccc2cc3c(NC(=O)c4cc5ccccc5o4)nn(C)c3nc2c1,-0.011% (inactive)
4,CC(C)c1ccc2cc3c(NC(=O)c4ccco4)nn(C)c3nc2c1,0.254% (inactive)
5,O=C(Nc1nnc(-c2ccncc2)o1)C1CCC1,0.061% (inactive)
6,CCn1nnnc1N,0.004% (inactive)
7,O=C(Nc1nnc(-c2ccc3c(c2)OCCO3)o1)C1CC1,0.006% (inactive)
8,Cc1ccc2cc3c(NC(=O)c4ccc(C)o4)nn(C)c3nc2c1,-0.007% (inactive)
9,CN(C)/C=N/c1nnc(-c2ccc3c(c2)OCCO3)o1,0.03% (inactive)
10,O=C(Nc1nnc(C2CCCC2)o1)C1CCCCC1,-0.004% (inactive)
11,COc1ccc(-c2nnc(NC(C)=O)o2)cc1,0.061% (inactive)
12,O=C(Nc1nnc(-c2ccccc2Cl)o1)C1CCCCC1,0.002% (inactive)
13,O=S(=O)(Nc1nnc(-c2ccc3c(c2)OCCO3)o1)c1ccc(Cl)cc1,-0.005% (inactive)
14,COc1ccc(S(=O)(=O)Nc2nnc(-c3ccc4c(c3)OCCO4)o2)cc1,0.008% (inactive)
15,O=C(Cc1ccc(-c2ccccc2)cc1)N[C@@H]1CCOC1 (racemic),12.2% (inactive)
16,COc1cccc(-c2nnc(NC(=O)C3CCCCC3)o2)c1,0% (inactive)

row,SMILES,activation (light induction)
1,CCn1nnnc1/N=C/c1ccc(N2CCCCC2)cc1,0.106% (inactive)
2,O=C(Cc1ccc(-c2ccccc2)cc1)NC1CNC1,0.02% (inactive)
3,O=C(Nc1nnc(-c2cccnc2)o1)C1CCC1,0% (inactive)
4,CN1CCC(C(=O)Nc2nnc(-c3ccc4c(c3)OCCO4)o2)CC1,0.038% (inactive)
5,CCn1nnnc1NC(C)c1ccc(N2CCCC2)cc1 (configuration not stated),11.2% (inactive)
6,Cc1ccc2cc3c(NC(=O)Cc4ccco4)nn(C)c3nc2c1,0.2% (inactive)
7,O=C(Nc1nnc(-c2ccc3c(c2)OCCO3)o1)C(F)(F)c1ccccc1,-0.005% (inactive)
8,O=C(Nc1nnc(-c2cccnc2)o1)C1CCCCC1,3.01% (inactive)
9,Cn1nc(NC(=O)c2ccco2)c2ccccc21,0.203% (inactive)
10,O=C(Cc1ccc(-c2ccccc2)cc1)NC1COC1,1.9% (inactive)
11,Cn1nc(NC(=O)c2ccco2)c2cc3ccc(C(C)(C)C)cc3nc21,-0.001% (inactive)
12,C(=N\c1nnc(-c2ccc3c(c2)OCCO3)o1)/c1ccccc1,0.009% (inactive)
13,O=C(Nc1nnc(-c2ccc3c(c2)OCCO3)o1)C1CCC1,0.011% (inactive)
14,CC(C)(C)OC(=O)N1CCC(C(=O)Nc2nnc(-c3ccc4c(c3)OCCO4)o2)CC1,0.022% (inactive)
15,Cc1ccc2cc3c(NC(=O)c4ccccn4)nn(C)c3nc2c1,-0.008% (inactive)

# Test system: V. cholerae BH1578 lux luminescence induction, 6 h
# Experiment: as above
# Settings: not given
row,SMILES,AC40
1,O=c1ncn(-c2cc(Cl)cc(Cl)c2)c2ccccc12,> 80 µM (inactive)
2,Cc1cc(F)c2cc3c(NC(=O)c4ccco4)nn(C)c3nc2c1,> 100 µM (inactive)
3,Cc1cc(F)cc2nc3c(cc12)c(NC(=O)c1ccco1)nn3C,83.3 µM
4,Cc1cc2nc3c(cc2cc1F)c(NC(=O)c1ccco1)nn3C,25.3 µM
5,O=C(Nc1nnc(-c2ccc3c(c2)OCCO3)o1)C1CCCCCC1,11.8 µM
6,COc1ccc(-c2nnc(NC(=O)C3CCCCC3)o2)cc1,> 100 µM (inactive)
7,Cn1nc(NC(=O)c2ccco2)c2cc3ccccc3nc21,6.9 µM
8,CCCCCCCCCC(=O)[C@H](O)CC (racemic),11.5 µM
9,O=C(Cc1ccc(-c2ccccc2)cc1)NC1CCC1,1.74 µM
10,CCn1nnnc1NCc1ccc(C(C)C)cc1,0.923 µM
11,Cc1ccc2cc3c(NC(=O)c4ccco4)nn(C)c3nc2c1,10.4 µM and 54.6 µM
12,Cc1cc2cc3c(NC(=O)c4ccco4)nn(C)c3nc2cc1C,45.7 µM
13,CCCCCCCCCC(=O)C(O)CC (configuration not stated),3.81 µM
14,COc1ccccc1-c1nnc(NC(=O)C2CCCCC2)o1,> 100 µM (inactive)
15,Cc1ccc2cc3c(NC(=O)C4CCCC4)nn(C)c3nc2c1,73.5 µM
16,O=C(Nc1nnc(-c2ccc3c(c2)OCCO3)o1)C1CCCCC1,5.45 µM and 1.91 µM
17,COc1ccc2cc3c(NC(=O)c4ccco4)nn(C)c3nc2c1,2.97 µM
18,Cc1ccc2cc3c(NC(=O)c4cccs4)nn(C)c3nc2c1,> 80 µM (inactive)
19,Cn1nc(NC(=O)c2ccco2)c2cccnc21,48.8 µM
20,CCc1ccc2cc3c(NC(=O)c4ccco4)nn(C)c3nc2c1,52.1 µM
21,CC(C)(C)COC(=O)CSc1n[nH]c(=O)[nH]c1=O,8.89 µM
